From article PMC6014687 (Journal of Medicinal Chemistry, 2016) come the findings set out here.

“And” between values parts separate entries of the source, which are not always exact repeats. Identical values can stand only once. Like-named read-outs stand apart in the source and are kept apart here. Some results are limits rather than exact numbers.

Data set [1] deals with SK-OV-3 cells. Briefly: cells. Particulars: Homo sapiens, SK-OV-3, 96 h.
Another data set is described as follows: physchem. Particulars: pH 7.4.
A short description of data set [2]: in vivo. Particulars: female, BALB/c, mouse, 5 mg/kg; for AUC(0-inf): AUCinf; for AUC(0-t): AUClast.
Procedure: Experimental work was done in accordance with Home Office regulations under the
UK National Cancer Research CR I Guidelines with local Ethical Committee approval.9
Female BALB/c and Ncr-Foxn1nu mice were obtained from Charles River (Margate, UK).
Animals were adapted to laborator y conditions for at least 1 week prior to dosing and were
allowed food and water ad libitum. Compounds were administered iv or po (0.1 m L/10 g) in
hydrox yprop yl beta c ycl odextrin in 50 mM sodium citrate buff er (Ncr-Foxn1nu PK). Blood
spotted onto Whatman FTA-DMPK B cards (VWR) together with a calibration curve and
qualit y controls spiked in control blood. Cards were allowed to dr y at room temperature for at
least 2 h. 6 mm discs were punched from the cards and extracted with 200 µ L methanol
containing 500 nM olo moucine as an internal standard. Following centrifugation, extracts
were anal yzed b y multiple reaction monitoring of precursor and product ions by LC-ES I-
% formic acid and methanol on a Phenomenex (Macclesfi eld, UK) Kinet exTM C18, 5 cm x
2.6 µ m, 2.1 mm i.d UHP LC column. Pharmac okinetic parameters were derived from non -
Data set [3] is described as follows: in vivo. Particulars: female, mouse, po, 20 mg/kg.
Data set [4] has as its system SK-OV-3 human ovarian carcinoma xenograft. Particulars: female, NCr athymic, mouse, in vivo.
In the next data set the target is recombinant human pirin (Homo sapiens, UniProt O00625).
Another data set deals with WM266.4 cells. Particulars: WM266.4, 30 h.
In data set [5] the test system is SK-OV-3 cells.
[6] abbreviates: read-out: SK-OV-3 pGI50±SEM (converted).

recombinant human pirin, sequence (O00625 whole entry): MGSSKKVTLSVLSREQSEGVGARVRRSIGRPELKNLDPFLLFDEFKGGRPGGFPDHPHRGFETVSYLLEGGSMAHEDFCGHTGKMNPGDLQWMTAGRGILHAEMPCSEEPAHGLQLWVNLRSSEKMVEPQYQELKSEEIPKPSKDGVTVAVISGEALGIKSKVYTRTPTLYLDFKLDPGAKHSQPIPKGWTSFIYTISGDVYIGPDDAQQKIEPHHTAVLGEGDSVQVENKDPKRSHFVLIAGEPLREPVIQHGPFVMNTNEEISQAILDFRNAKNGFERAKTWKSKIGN

Take `Cc1ccc2cc(C(=O)Nc3cc(NC(=O)c4cccc5c4OCCO5)ccc3C)ccc2n1` [Compound 6, N-(5-(2,3-Dihydrobenzo[b][1,4]dioxine-5-carboxamido)-2-methylphenyl)-2-methylquinoline-6-carboxamide]: the GI50 in the data set on SK-OV-3 cells [1] (read-out: SK-OV-3 GI50) and in the data set on SK-OV-3 cells [1] (setting [6]) was greater than 1000 nM throughout.

On to `Cc1ccc2cc(C(=O)Nc3c(C)ccc(NC(=O)c4ccc5c(c4)OCCO5)c3C)ccc2n1` [Compound 11, N-(3-(2,3-Dihydrobenzo[b][1,4]dioxine-6-carboxamido)-2,6-dimethylphenyl)-2-methylquinoline-6-carboxamide], for which the GI50 in the data set with SK-OV-3 cells [1] (read-out: SK-OV-3 GI50) and in the data set on SK-OV-3 cells [1] (setting [6]) was greater than 1000 nM in each case.

Regarding `Cc1ccc2cc(C(=O)Nc3cc(NC(=O)c4ccc5c(c4)OCCO5)c(C)cc3C)ccc2n1` [Compound 12, N-(5-(2,3-Dihydrobenzo[b][1,4]dioxine-6-carboxamido)-2,4-dimethylphenyl)-2-methylquinoline-6-carboxamide], the GI50 in the data set with SK-OV-3 cells [1] (read-out: SK-OV-3 GI50) and in the data set with SK-OV-3 cells [1] (setting [6]) was greater than 1000 nM throughout.

For `Cc1ccc2cc(C(=O)Nc3cc(NS(=O)(=O)c4ccc5c(c4)OCCO5)ccc3C)ccc2n1` [Compound 14, N-(5-(2,3-Dihydrobenzo[b][1,4]dioxine-6-sulfonamido)-2-methylphenyl)-2-methylquinoline-6-carboxamide], the GI50 in the data set on SK-OV-3 cells [1] (read-out: SK-OV-3 GI50) and in the data set with SK-OV-3 cells [1] (setting [6]) was greater than 1000 nM in each case.

On to `Cc1ccc(NC(=O)c2ccc3c(c2)OCCO3)cc1NC(=O)c1ccc2ncccc2c1` [Compound 15, N-(5-(2,3-Dihydrobenzo[b][1,4]dioxine-6-carboxamido)-2-methylphenyl)quinoline-6-carboxamide], for which the results for the GI50 in the data set with SK-OV-3 cells [1] (read-out: SK-OV-3 GI50) and in the data set on SK-OV-3 cells [1] (setting [6]) were 8.6 nM and 2.51 nM, respectively.

Take `COCCOc1ccc2cc(C(=O)Nc3cc(NC(=O)c4ccc5c(c4)OCCO5)ccc3C)ccc2n1` [Compound 21, N-(5-(2,3-Dihydrobenzo[b][1,4]dioxine-6-carboxamido)-2-methylphenyl)-2-(2-methoxyethoxy)quinoline-6-carboxamide]: the GI50 is 4.3 nM with SK-OV-3 cells [1] (read-out: SK-OV-3 GI50) and 4.27 nM with SK-OV-3 cells [1] (setting [6]).

For the compound `Cc1ccc(NC(=O)c2ccc3c(c2)OCCO3)cc1NC(=O)c1ccc2nc(OCCCN(C)C)ccc2c1` [Compound 22, N-(5-(2,3-Dihydrobenzo[b][1,4]dioxine-6-carboxamido)-2-methylphenyl)-2-(3-(dimethylamino)propoxy)quinoline-6-carboxamide], the results for the GI50 in the data set with SK-OV-3 cells [1] (read-out: SK-OV-3 GI50) and in the data set on SK-OV-3 cells [1] (setting [6]) were 1.1 nM and 1.15 nM, respectively.

As to `Cc1ccc(NC(=O)c2ccc3c(c2)OCCO3)cc1NC(=O)c1ccc2nc(OCCCN3CCOCC3)ccc2c1` [Compound 23, N-(5-(2,3-Dihydrobenzo[b][1,4]dioxine-6-carboxamido)-2-methylphenyl)-2-(3-morpholinopropoxy)quinoline-6-carboxamide], the figures for the GI50 in the data set on SK-OV-3 cells [1] (read-out: SK-OV-3 GI50) and with SK-OV-3 cells [1] (setting [6]) were 7.4 nM and 7.41 nM, respectively.

As for `Cc1ccc(NC(=O)c2ccc3c(c2)OCCO3)cc1NC(=O)c1ccc2nc(OCCN3CCCCC3)ccc2c1` [Compound 25, N-(5-(2,3-Dihydrobenzo[b][1,4]dioxine-6-carboxamido)-2-methylphenyl)-2-(2-(piperidin-1-yl)ethoxy)quinoline-6-carboxamide], the GI50 in the data set on SK-OV-3 cells [1] (read-out: SK-OV-3 GI50) was 1.1 nM.

By chromatographic logD is commonly meant lipophilicity estimated from chromatographic retention. What is called half-life is how long it takes for the measured level to halve. A high value points to slow decline. The AUC(0-inf) is the area under the concentration-time curve extrapolated to infinity. Broadly, the AUC(0-t) is exposure summed from dosing to a finite time, without extrapolation to infinity. Read a low AUC(0-t) as less exposure. The clearance is the rate of elimination divided by the concentration. Read a low clearance as inefficient removal. By Cmax is commonly meant the highest concentration seen after dosing. As a reminder, the Vd is the apparent volume that relates the amount in the body to the concentration in plasma or blood. Read a high Vd as wide distribution into tissue. In the case of `Cc1ccc(NC(=O)c2ccc3c(c2)OCCO3)cc1NC(=O)c1ccc2nc(OCCN3CCCC3)ccc2c1` [Compound 26, N-(5-(2,3-Dihydrobenzo[b][1,4]dioxine-6-carboxamido)-2-methylphenyl)-2-(2-(pyrrolidin-1-yl)ethoxy)quinoline-6-carboxamide], the chromatographic logD in the data set “physchem” was 2.1. The compound further showed a half-life at 24 h in “in vivo [2]” of 5.3 h. The AUC(0-inf) in “in vivo [2]” (iv) came out at 14.8 µM·h; in “in vivo [2]” (po), 6.09 µM·h; in “in vivo [3]” (Ncr-Foxn1nu (athymic), AUCinf) it was 1.58 µM·h. Also, the exposure AUC(0-t) in “in vivo [2]” (iv) turned out to be 14.1 µM·h; in the data set “in vivo [2]” (po) it was 5.02 µM·h; in “in vivo [3]” (Ncr-Foxn1nu (athymic), AUClast), 1.53 µM·h. The clearance in the data set “in vivo [2]” (iv, Cl) turned out to be 0.588 L/h/kg. The maximum concentration (Cmax) in the data set “in vivo [2]” (iv) was found to be 3.83 µM; in the data set “in vivo [2]” (po) it was 0.828 µM; in “in vivo [3]” (Ncr-Foxn1nu (athymic), Cmax), 0.439 µM. Further, the volume of distribution (Vd) in “in vivo [2]” (iv, Vss) stood at 3.26 L/kg; in the data set “in vivo [2]” (iv, Vz) it was 5.78 L/kg. The volume of distribution (Vd) at 24 h in “in vivo [2]” (iv, Vss) was determined as 4.2 L/kg. This compound registered a clearance at 24 h in the data set “in vivo [2]” (iv, blood Cl) of 0.552 L/h/kg. Besides, the AUC(0-t) at 24 h in “in vivo [2]” (po, AUC0–24h PO) is 5.8 µM·h; in the data set “in vivo [3]” (athymic (Ncr-Foxn1nu), AUC0–24h PO) it was 1.9 µM·h. Besides, the total tumor concentrations in data set [4] is on record as no more than 940 nM.

As to `CCC(=O)NCCOc1ccc2cc(C(=O)Nc3cc(NC(=O)c4ccc5c(c4)OCCO5)ccc3C)ccc2n1` [Compound 27], the GI50 in the data set on SK-OV-3 cells [1] (read-out: SK-OV-3 GI50) is 9.1 nM; in the data set with SK-OV-3 cells [1] (setting [6]), 9.12 nM.

As to `Cc1ccc(NC(=O)c2cccc3c2OCCO3)cc1NC(=O)c1ccc2nc(OCCN3CCCC3)ccc2c1` [Compound 28, N-(5-(2,3-Dihydrobenzo[b][1,4]dioxine-5-carboxamido)-2-methylphenyl)-2-(2-(pyrrolidin-1-yl)ethoxy)quinoline-6-carboxamide], the “AS (apparent stoichiometry)” value at recombinant human pirin is 1.18 and 1.11 and 1.80. In the data set on WM266.4 cells, the antimigratory activity result is reported as “no measurable antimigratory activity”. Further, the GI50 with SK-OV-3 cells [1] (read-out: SK-OV-3 GI50) and in the data set with SK-OV-3 cells [1] (setting [6]) was greater than 1000 nM throughout. In addition, in the data set on SK-OV-3 cells [5], the “SK-OV-3 pGI50±SEM” value is less than 6.

In the case of `Cc1ccc(NC(=O)c2ccc3c(c2)OCCO3)cc1NC(=O)c1ccc2nc(OCCN)ccc2c1` [Compound 29, 2-(2-Aminoethoxy)-N-(5-(2,3-dihydrobenzo[b][1,4]dioxine-6-carboxamido)-2-methylphenyl)quinoline-6-carboxamide], the figures for the GI50 with SK-OV-3 cells [1] (read-out: SK-OV-3 GI50) and in the data set on SK-OV-3 cells [1] (setting [6]) were 3.1 nM and 3.09 nM, respectively.
